≈ marks a conversion by molar mass, not a printed value. Calls of active or inactive are those of the source. The calls are words filed in the database; no cut-off is given here.
Assays:
Aspergillus niger = assay: Antifungal activity against Aspergillus niger assessed as diameter of the zone of inhibition at 20 ug/disk by disk diffusion method; assay type: functional; settings: for zone of inhibition at 20 µg/disc: read-out: DIZ
Alternaria brassicae = assay: Antifungal activity against Alternaria brassicae assessed as diameter of the zone of inhibition at 20 ug/disk by disk diffusion method; assay type: functional; settings: for zone of inhibition at 20 µg/disc: read-out: DIZ
SW1990 = assay: Cytotoxicity against human SW1990 cells; assay type: functional, cell-based
NCI-H460 = assay: Cytotoxicity against human NCI-H460 cells; assay type: functional, cell-based
HeLa = assay: Cytotoxicity against human HeLa cells; assay type: functional, cell-based

Row | SMILES | Activity (Aspergillus niger) | Activity (Alternaria brassicae) | zone of inhibition at 20 µg/disc (Aspergillus niger) [mm] | zone of inhibition at 20 µg/disc (Alternaria brassicae) [mm] | IC50 (SW1990) [µg/mL] | IC50 (NCI-H460) [µg/mL] | IC50 (HeLa) [µg/mL]
1 | CC(=O)O[C@H]1C[C@H]2[C@H]3[C@H]([C@@H](O)C[C@]2(C)[C@H]1[C@H](C)/C=C/[C@H](C)C(C)C)[C@@]1(C)CC[C@H](O)CC1=C[C@@H]3O | inactive | inactive |  |  |  |  | 
2 | C[C@@H]1[C@H](O)[C@@H](C)/C=C/C=C/C=C/C=C/C=C/C=C/C=C/[C@H](O[C@@H]2O[C@H](C)[C@@H](O)[C@H](N)[C@@H]2O)C[C@@H]2O[C@](O)(C[C@@H](O)C[C@@H](O)[C@H](O)CC[C@@H](O)C[C@@H](O)CC(=O)O[C@H]1C)C[C@H](O)[C@H]2C(=O)O [AMPHOTERICIN B] |  |  | 24 | 16 |  |  | 
3 | CC(=O)O[C@H]1C[C@H]2[C@@H]3[C@@H](O)[C@@H](O)[C@H]4C[C@@H](O)CC[C@]4(C)[C@H]3[C@@H](O)C[C@]2(C)[C@H]1[C@H](C)/C=C/[C@H](C)C(C)C |  |  | 18 | 8 | 31 (≈ 61.2 µM) | 40 (≈ 78.9 µM) | 15 (≈ 29.6 µM)
4 | CC(=O)O[C@H]1C[C@H]2[C@H]3[C@H]([C@@H](O)C[C@]2(C)[C@H]1[C@H](C)/C=C/[C@H](C)C(C)C)[C@@]1(C)CC[C@H](O)C[C@@H]1C(=O)[C@@H]3O [ANICEQUOL] | Active |  |  | 6 |  |  | 
